Measured values from patent publication US20110110886A1, “SMALL MOLECULE INHIBITORS OF AUTOTAXIN AND METHODS OF USE” (Yale University, priority 2008, published 2011).
“Also recorded” adds a separate entry of the source. Read-outs that look alike come from different tables or passages of the source.

What was measured:
A2058 melanoma cells = experiment: Matrigel cell invasion assay, melanoma cells; assay type: cell-based, human; settings: A2058, 50 nM ATX
Protocol: (§1) All cell media was supplemented with 10% (v/v) fetal calf serum (FCS) (Gibco) and 1% (v/v) L-glutamine (Gibco) and grown at 37° C. in a humidified atmosphere containing 5% CO2.
Cell invasion assays: Matrigel matrix (1 mg/ml, Becton Dickenson) was added to […] gelatin-coated membranes placed in cell culture inserts (BD Falcon) and allowed to set for 24 hours at room temperature. The inserts were placed into companion 24 well plates (BD Falcon), and chemo-attractants (ATX ±inhibitors) and/or controls were added to the bottom of the wells. Cells (1×10^6) were added to the inserts and incubated for 3 hours at 37° C. Following incubation, the inserts were removed, fixed in 100% methanol, stained with DiffQuick solution, and mounted on glass slides. Non-invading cells were removed by scraping away the matrigel, and migrating cells were quantitated by counting cell number per high-powered field.

[1] = test system: human melanoma cell line (A2058); experiment: Boyden chamber cell migration assay, melanoma cells; assay type: cell-based; settings: A2058, 50 nM ATX, 4 hours
Protocol: as §1
The assay chambers are divided by a gelatin-coated membrane with […] pores (NeuroProbe). […] The chambers were then incubated at 37° C. for 4 hours, after which the filters were removed, fixed in 100% methanol, stained with a DiffQuick solution, and mounted onto glass slides. Non-migrating cells were removed from the membrane by scraping the top surface. The cells were quantitated by counting the cell number per high powered field in the various wells. Treatments were compared using a chi squared test.

[2] = biological target: T1, ATX (recombinant full-length human ATX), lysoPLD activity (Homo sapiens, UniProt Q13822); experiment: Steady-state ATX lysoPLD activity with fluorescent LPC analogue FS-3; assay type: biochemical; settings: for type of inhibition of ATX lysoPLD activity: substrate FS-3; for Ki: substrate FS-3, 37° C.
T1 construct: consistent with a mature, glycosylated form of the enzyme; TEV cleavage site (C); 9-His (C); 6-His (C); made in house; host or cells: High Five insect cells (baculovirus, p-DEST-8)
Protocol: Protein expression and purification: The full length human NPP2 gene (NCBI accession #BC034961) followed by a C-terminal TEV cleavage site and a 9-His and 6-His purification tag was cloned and transferred into a p-DEST-8 baculovirus shuttle vector (Invitrogen), and bacmid DNA was generated by standard methods. […] Three days post infection, the supernatant was adjusted to a final concentration of 50 mM Tris pH 8.0, 5 mM CaCl2, and 1 mM NiSO4 and stirred for 10 min. at room temperature. […] Purified ATX was concentrated to approximately 10 mg mL^−1, and dialyzed into the appropriate assay buffer.
Fluorescence was measured (λex=485 nm, λem=520 nm) on a SpectraMax Gemini XPS at 37° C. under buffer conditions similar to the PDE assays but lacking BSA. […] The spontaneous reaction rates were subtracted from the enzyme catalyzed rates.
The steady-state rates (v) of product formation were obtained by fitting the time courses of absorbance or fluorescence change to linear functions. […] FS-3 hydrolysis product formation was quantitated in arbitrary fluorescence units.
(§2) The Michaelis constants (KM) and the catalytic turnover rate constants (kcat) were obtained by fitting the [substrate]-dependence of v to a rectangular hyperbola in the form of the Briggs-Haldane equation: […]
(§3) in which [S] is [pNP-TMP] or [FS-3]. Inhibitors were treated as reversible inhibitors and analyzed according to the general steady-state linear enzyme inhibitor scheme:
(§4) in which E is ATX, S is pNP-TMP or FS-3 substrate, P are the hydrolysis products, and K1 is the dissociation equilibrium constant for inhibitor binding. The values of α and K1 were obtained by fitting the steady-state rates of product formation (v) to the general inhibition equation: […]
(§5) in which [I] is the inhibitor concentration, kcat is the maximum catalytic turnover rate, and KS is the Michaelis constant of the substrate obtained in the absence of inhibitor.
(§6) The type of inhibition (competitive, noncompetitive, or uncompetitive) depends on the value of α.
(§7) The type of inhibition was assigned if the difference between the r^2 values of the fits to the general inhibition equation (Eq 2) and the specific inhibition (i.e. competitive, noncompetitive or uncompetitive) equations was less than 0.01.

[3] = biological target: T2, ATX (recombinant full-length human ATX), PDE activity (Homo sapiens, UniProt Q13822); experiment: Steady-state ATX phosphodiesterase (PDE) activity with pNP-TMP, absorbance 405 nm; assay type: biochemical; settings: substrate pNP-TMP; for Ki: 25° C.
T2 construct: consistent with a mature, glycosylated form of the enzyme; TEV cleavage site (C); 9-His (C); 6-His (C); made in house; host or cells: High Five insect cells (baculovirus, p-DEST-8)
From the text: Protein expression and purification: The full length human NPP2 gene (NCBI accession #BC034961) followed by a C-terminal TEV cleavage site and a 9-His and 6-His purification tag was cloned and transferred into a p-DEST-8 baculovirus shuttle vector (Invitrogen), and bacmid DNA was generated by standard methods. The DNA sequence and correct transposition of the genes was verified by PCR, and recombinant full-length human ATX was expressed in High Five insect cells using standard methods. Three days post infection, the supernatant was adjusted to a final concentration of 50 mM Tris pH 8.0, 5 mM CaCl2, and 1 mM NiSO4 and stirred for 10 min. at room temperature. The resulting precipitant was removed by centrifugation (4,420×g for 30 minutes) and filtration ([…]), and the supernatant was concentrated using a Pall concentration system to approximately 250 mL. The cell media was passed over a nickel affinity column (5 mL, Fastflow resin), equilibrated in binding buffer (20 mM Tris pH 8.0, 300 mM NaCl, 20 mM imidazole, and 20% ethylene glycol) at 4° C., washed with 10 column volumes of binding buffer, and then eluted with binding buffer supplemented with 300 mM imidazole. Purified ATX was concentrated to approximately 10 mg mL^−1, and dialyzed into the appropriate assay buffer.
Steady-state enzyme assays: Phosphodiesterase activity of ATX (75-100 nM) was measured by absorbance (λ=405 nm) on a SpectraMax 250 plate reader at 25° C. with the substrate pNP-TMP [36]. Reactions were run in assay buffer containing 10% DMSO (v/v) and 1 mg mL^−1 BSA (hexachlorophene, merbromin, and bithionol) or without BSA (NSC 48300, 2,2′-Methylenebis(4-chlorophenol), eosin Y, and RJC 03297) in a total volume of […]. The uncatalyzed reaction rate was ≦10^−7 s^−1 (data not shown).
The steady-state rates (v) of product formation were obtained by fitting the time courses of absorbance or fluorescence change to linear functions. Absorbance units were converted to p-nitrophenylate concentration using ε405 of 18.5 mM^−1 cm^−1 [39] and a measured path length of 0.494 cm. FS-3 hydrolysis product formation was quantitated in arbitrary fluorescence units.
as §2, §3, §4, §5, §6, §7

SMILES	inhibition of ATX-induced stimulation of melanoma cell invasion (A2058 melanoma cells)	inhibition of ATX-induced stimulation of melanoma cell motility [1]	type of inhibition of ATX lysoPLD activity [2]	Ki [2] [µM]	type of inhibition of ATX PDE activity [3]	α value from general steady-state inhibition equation (Eq. 2) [3]	Ki ([3]; read-out: KI (dissociation equilibrium constant for inhibitor binding), ATX PDE activity) [µM]	inhibition of ATX-induced stimulation of melanoma cell invasion (A2058 melanoma cells; listed as NSC48300)	Ki ([3]; competitive inhibition equation (Eq. 3), read-out: KI, ATX PDE activity) [µM]
Oc1c(Cl)cc(Cl)cc1Sc1cc(Cl)cc(Cl)c1O [Bithionol]	inhibited in a dose-dependent manner; also recorded: could be reduced	inhibited in a dose-dependent manner	competitively inhibits	66	mixed, noncompetitive inhibition mechanism	3.0 (±2.3)	60	–	–
O=[As](O)(O)c1ccc(Cc2ccc([As](=O)(O)O)cc2)cc1 [NSC 48300]	inhibited in a dose-dependent manner	inhibited in a dose-dependent manner	competitively inhibits	0.24	competitive inhibition	–	–	could be reduced	0.0475
